Results reported in US7157479B2, “Oxazol/thiazol-derivatives activators of the hPPAR-alpha receptor” (Glaxo Group Limited, priority 2001, dated 2007).

Tests used:
hPPAR alpha = target: T1, hPPAR alpha (Homo sapiens, UniProt Q07869); test: Transient transfection (transactivation) assay in CV-1 cells, hPPAR alpha; format: cell-based; details: GAL4 chimera, SPAP reporter, read-out: EC50 nM HPPARα
T1 construct: expressed in transfected cells; host or cells: CV-1 cells
T1 sequence (Q07869 239-466 limits assumed): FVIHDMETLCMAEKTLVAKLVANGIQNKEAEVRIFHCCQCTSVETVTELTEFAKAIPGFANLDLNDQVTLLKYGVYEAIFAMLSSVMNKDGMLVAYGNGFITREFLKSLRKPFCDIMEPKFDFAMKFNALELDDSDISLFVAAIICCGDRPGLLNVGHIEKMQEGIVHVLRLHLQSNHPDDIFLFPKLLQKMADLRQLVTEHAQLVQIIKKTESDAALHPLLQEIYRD
From the text: (§1) Compounds were screened for functional potency in transient transfection assays in CV-1 cells for their ability to activate the PPAR subtypes (transactivation assay). A previously established chimeric receptor system was utilized to allow comparison of the relative transcriptional activity of the receptor subtypes on the same target gene and to prevent endogenous receptor activation from complicating the interpretation of results. See, for example, Lehmann, J. M.; Moore, L. B.; Smith-Oliver, T. A.; Wilkison, W. O.; Willson, T. M.; Kliewer, S. A., An antidiabetic thiazolidinedione is a high affinity ligand for peroxisome proliferator-activated receptor gamma (PPARgamma), J. Biol. Chem., 1995, 270, 12953–6. The ligand binding domains for murine and human PPAR alpha, PPAR gamma, and PPAR delta were each fused to the yeast transcription factor GAL4 DNA binding domain. CV-1 cells were transiently transfected with expression vectors for the respective PPAR chimera along with0 a reporter construct containing five copies of the GAL4 DNA binding site driving expression of secreted placental alkaline phosphatase (SPAP) and β-galactosidase. After 16 h, the medium was exchanged to DME medium supplemented with 10% delipidated fetal calf serum and the test compound at the appropriate concentration. […]

hPPAR delta = target: T2, hPPAR delta (Homo sapiens, UniProt Q03181); test: Transient transfection (transactivation) assay in CV-1 cells, hPPAR delta; format: cell-based; details: GAL4 chimera, SPAP reporter, read-out: EC50 nM HPPARδ
T2 construct: expressed in transfected cells; host or cells: CV-1 cells
T2 sequence (Q03181 211-439 limits assumed): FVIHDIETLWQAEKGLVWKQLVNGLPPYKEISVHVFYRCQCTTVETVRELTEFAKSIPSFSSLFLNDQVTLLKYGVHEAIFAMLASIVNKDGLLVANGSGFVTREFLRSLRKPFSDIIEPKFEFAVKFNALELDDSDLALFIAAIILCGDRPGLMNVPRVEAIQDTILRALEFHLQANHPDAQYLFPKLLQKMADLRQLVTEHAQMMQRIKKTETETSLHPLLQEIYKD
From the text: as §1

hPPAR gamma = target: T3, hPPAR gamma (Homo sapiens, UniProt P37231); test: Transient transfection (transactivation) assay in CV-1 cells, hPPAR gamma; format: cell-based; details: GAL4 chimera, SPAP reporter, read-out: EC50 nM HPPARy
T3 construct: expressed in transfected cells; host or cells: CV-1 cells
T3 sequence (P37231 238-503 limits assumed): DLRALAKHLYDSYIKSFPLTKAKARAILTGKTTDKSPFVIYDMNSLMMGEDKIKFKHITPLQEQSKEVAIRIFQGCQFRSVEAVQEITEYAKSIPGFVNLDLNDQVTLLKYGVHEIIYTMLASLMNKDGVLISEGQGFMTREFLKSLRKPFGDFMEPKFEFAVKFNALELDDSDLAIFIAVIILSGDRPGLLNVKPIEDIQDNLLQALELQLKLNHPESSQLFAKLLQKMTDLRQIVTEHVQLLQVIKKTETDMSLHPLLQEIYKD
From the text: as §1

Row | SMILES | EC50 (hPPAR alpha) | EC50 (hPPAR delta) | EC50 (hPPAR gamma) | melting point
1 | CCc1ccc(-c2sc(C(=O)NCc3ccc(OC(C)(C)C(=O)O)cc3)nc2C)cc1 [Example 2, 2-methyl-2–[4-{[(4-methyl-5-[4-ethylphenyl]thiazol-2-ylcarbonyl)amino]methyl}phenoxy]propionic Acid] | 5 nM | 8740 nM | 700 nM | 
2 | CCOC(=O)C(C)(C)Oc1ccc(CNC(=O)c2nc(C)c(-c3ccc(F)cc3)s2)cc1 [Example 3, 2-methyl-2-[4-{[(4-methyl-5-[4-fluorophenyl]thiazol-2-ylcarbonyl)amino]methyl}phenoxy]propionic Acid Ethyl Ester] |  |  |  | 97 °C
3 | Cc1nc(C(=O)NCc2ccc(OC(C)(C)C(=O)O)cc2)sc1-c1ccc(F)cc1 [Example 4, 2-methyl-2-[4-{[(4-methyl-5-[4-fluorophenyl]thiazol-2-ylcarbonyl)amino]methyl}phenoxy]propionic Acid] | 61 nM | 10000 nM | 5880 nM | 122 °C
